Data set [1] in a line: Linear curve fittings of the solubility points and stability areas from intersections of solubility curves. The class given is physicochemical. The note with it: for solubility line s as function of temperature t (linear fitting): t in ° C., s = weight of lactitol/(weight of lactitol+weight of water)×100%, between 100 and 0 ° C. From the text:
The solubility data of Table 2 was combined with some earlier solubility measurement data. The curve fittings of the solubility points were made as linear fittings, when % by weight is used as a concentration unit. […] The fittings were made with the aid of the spread sheet program Excel 5.0^R. The solubility equations of the different hydrate forms are shown in Equations (I) to (IV): [formula]
The fitting of the trihydrate cannot be considered absolutely exact because only three measurement points were used for fitting: one exact point, one uncertain point and one calculatory point.
The solubility points and the curve fittings are shown in a graph in FIG. 1. […] From the intersections of solubility curves it is possible to conclude the stability areas of the different lactitol forms.

The nature of data set [2]: Solubility Test 1: equilibrium solubility of lactitol crystals in water. Format: physicochemical. As for the experimental part: The determination of the solubility and stability of lactitol crystals in water was made as follows:
The lactitol, which was used in the tests, was high grade lactitol monohydrate Lactitol MC (batch 21769) manufactured by Xyrofin OY, Finland according to EP Patent 0456636. This monohydrate was also used as seed crystals. When lactitol dihydrate was studied at 45° C. and 55 ° C., lactitol dihydrate produced at the applicant's research laboratory Dec. 20, 1994 (crystallization No. 3) was used both for solution and as seed crystals. […] The water, which was used, was distilled water.
At 35° C. the supersaturation was 10 g/100 g. […] The solutions were made by dissolving the monohydrate into water at a temperature above the solubility temperature. The solutions which were used at 65° C. and 75° C. were made by evaporating with a vacuum rotating flask evaporator. The concentrations were determined by refractometric indexes (RI). At the temperatures of 5° C., 10° C. and 15° C. the solutions were made in a 2-liter jacketed vessel. The other solutions were made in 200 ml or 250 ml measurement bottles.
When the lactitol had dissolved, the solution was cooled to the test temperature. The solution was seeded with softly crushed monohydrate crystals (2 tests with dihydrate crystals). In the measurement bottles the solutions were stirred with a magnetic stirrer and in the jacketed vessel with a motor driven mixer.
The crystallization of lactitol and the equilibration of the solution was monitored by measuring the refractometric index (RI) of the mother liquid. Before taking a sample, the crystals were allowed settle on the bottom of the vessel, so that the measurement of the RI would be as exact as possible. […] Thus, the RI of the mother liquid was measured from a suspension of crystals and solution. At the end point of the measurement the waiting time was so long that the mother liquid was clearly separated and after that the RI of the mother liquid was measured. The RIs were measured below 55° C. with an Index Instruments GPR-11-37 refractometer and above 55° C. with a Zeiβ refractometer, both of which were calibrated.
The equilibration of the solution was generally monitored for 7 . . . 14 days, but only for 3 days, when dihydrate was used as seed crystals. […] 150° C. and reading accuracy of 0.2° C. The accuracy of this thermometer was checked against a calibrated thermometer.
After the crystal suspension had reached equilibrium, the crystals were separated by centrifuging 15 min 5000 rpm using a thick cloth. One part of the crystals was dried at 60° C. in a drying cabinet over a night. The water contents of both undried and dried crystals were analyzed by the Karl Fischer method or by a coulometric Karl Fischer method. Furthermore, melting behaviors were analyzed.
The final solubilities at the studied temperatures are shown in Tables 2 and 3 in addition to the crystal forms. The crystal form was concluded from the water contents of the undried crystals and from the melting ranges. The water contents are shown in Tables 4 and 5 and melting behaviors in Table 6.

On to `OC[C@@H](O)[C@@H](O[C@@H]1O[C@H](CO)[C@H](O)[C@H](O)[C@H]1O)[C@H](O)[C@@H](O)CO` [trihydrate, lactitol trihydrate], for which the “stability area (temperature)” value in data set [1] (in water, from the intersections of solubility curves, trihydrate) was less than 12 °C. Also, the “solubility line s as function of temperature t (linear fitting)” value (shortened to “solubility line s as function”) in data set [1] (trihydrate) is 33.4+1.1482t. In addition, in data set [2] (5.1 ° C., lactitol monohydrate used as seed crystals), the Solubility is 42.3 g/100 g.
On to `OC[C@@H](O)[C@@H](O[C@@H]1O[C@H](CO)[C@H](O)[C@H](O)[C@H]1O)[C@H](O)[C@@H](O)CO` [monohydrate, lactitol monohydrate], for which the “solubility line s as function” value in data set [1] (monohydrate) is given as 50.2+0.4346t. The Solubility in data set [2] (54.7 ° C., lactitol dihydrate used as seed crystals) amounted to 73.4 g/100 g; in data set [2] (55.0 ° C., lactitol monohydrate used as seed crystals), 75.2 g/100 g; in data set [2] (65.0 ° C., lactitol monohydrate used as seed crystals) it was 79.6 g/100 g.
For the compound `OC[C@@H](O)[C@@H](O[C@@H]1O[C@H](CO)[C@H](O)[C@H](O)[C@H]1O)[C@H](O)[C@@H](O)CO` [dihydrate, lactitol dihydrate], in data set [1] (dihydrate), the “solubility line s as function” value is given as 39.7+0.6332t. Also, the Solubility in data set [2] (10.2 ° C., lactitol monohydrate used as seed crystals) came to 45.7 g/100 g; in data set [2] (15.0 ° C., lactitol monohydrate used as seed crystals), 48.8 g/100 g; in data set [2] (25.6 ° C., lactitol monohydrate used as seed crystals), 56.3 g/100 g; in data set [2] (35.0 ° C., lactitol monohydrate used as seed crystals), 61.7 g/100 g; in data set [2] (45.0 ° C., lactitol dihydrate used as seed crystals) it was 69.1 g/100 g.

The values above are taken from patent US6407227B1, “Process for the crystallization of lactitol” (Xyrofin Oy, priority 1997, dated 2002).
